The results in this text go back to ChEMBL document CHEMBL5465560, “Selectivity Literature for EUbOPEN Chemogenomic Library” (2024).

Each structure is given as a SMILES string.

The target in test [1] is Casein kinase I isoform alpha (Homo sapiens, UniProt P48729). Description: Selectivity interaction (Kinase panel (KiNativ target engagement assay in Jurkat cells)) EUB0001635a CSNK1A1. In kind it is cell-based. As to conditions: Selectivity number of off-targets 0.0, Selectivity number of targets 233.0, Source Knowledge https://www.sciencedirect.com/science/article/pii/S2451945619300674?via%3Dihub, at 1 µM.

Test [2] has as its target Dual specificity tyrosine-phosphorylation-regulated kinase 1B (Homo sapiens, UniProt Q9Y463). Description: Selectivity interaction (KinomeScan (DiscoverX)) EUB0000607a DYRK1B. As to conditions: at 10 µM.
Test [3] relates to Tyrosine-protein kinase ABL1 (Homo sapiens), P00519 [F317I]. The conditions noted are these: at 10 µM.
The target in test [4] is Serine/threonine-protein kinase WNK1 (Homo sapiens) (UniProt Q9H4A3). Nature of the test: Selectivity interaction (KinomeScan (DiscoverX)) EUB0000666a WNK1. The conditions noted are these: at 10 µM.
The target in test [5] is Hepatocyte growth factor receptor (Homo sapiens, UniProt P08581). Description: (§1) Selectivity interaction (KinomeScan (DiscoverX)) EUB0000229b MET. The conditions noted are these: at 10 µM.
Test [6] relates to Hepatocyte growth factor receptor (Homo sapiens), P08581 [M1250T]. The description is as §1. As to conditions: at 1 µM.
The test system of test [7] is Hepatocyte growth factor receptor (Homo sapiens), P08581 [Y1235D]. The test is described as §1. The conditions noted are these: at 1 µM.
Test [8] concerns the target Tyrosine-protein kinase SYK (Homo sapiens, UniProt P43405). Nature of the test: Selectivity interaction (ActivX KiNativ screen (kinase selectivity in THP-1 cell lysates)) EUB0000639a SYK. In kind it is subcellular. As to conditions: lysate, at 1 µM.
In test [9] the target is Mitogen-activated protein kinase 10 (Homo sapiens, UniProt P53779). Nature of the test: Selectivity interaction (Kinase panel (Invitrogen)) EUB0000639a MAPK10. As to conditions: at 200 nM.
Test [10] deals with Serine/threonine-protein kinase WNK2 (Homo sapiens) (UniProt Q9Y3S1). Nature of the test: Selectivity interaction (ActivX KiNativ screen (kinase selectivity in THP-1 cell lysates)) EUB0000639a WNK2. Type of test: subcellular. As to conditions: lysate, at 0.04 µM.
Test [11] relates to Tyrosine-protein kinase ABL1 (Homo sapiens), P00519 [Q252H]. Nature of the test: Selectivity interaction (KinomeScan (DiscoverX)) EUB0001049a ABL1. The conditions noted are these: at 1 µM.
Test [12] concerns the target Transcription initiation factor TFIID subunit 1 (Homo sapiens) (UniProt P21675). Description: Selectivity interaction (Bromodomain panel (DSF asssay)) EUB0000270b TAF1.
The target of test [13] is T1, Serine/threonine-protein kinase ULK1 (Homo sapiens) (UniProt O75385).
T1 sequence (whole entry): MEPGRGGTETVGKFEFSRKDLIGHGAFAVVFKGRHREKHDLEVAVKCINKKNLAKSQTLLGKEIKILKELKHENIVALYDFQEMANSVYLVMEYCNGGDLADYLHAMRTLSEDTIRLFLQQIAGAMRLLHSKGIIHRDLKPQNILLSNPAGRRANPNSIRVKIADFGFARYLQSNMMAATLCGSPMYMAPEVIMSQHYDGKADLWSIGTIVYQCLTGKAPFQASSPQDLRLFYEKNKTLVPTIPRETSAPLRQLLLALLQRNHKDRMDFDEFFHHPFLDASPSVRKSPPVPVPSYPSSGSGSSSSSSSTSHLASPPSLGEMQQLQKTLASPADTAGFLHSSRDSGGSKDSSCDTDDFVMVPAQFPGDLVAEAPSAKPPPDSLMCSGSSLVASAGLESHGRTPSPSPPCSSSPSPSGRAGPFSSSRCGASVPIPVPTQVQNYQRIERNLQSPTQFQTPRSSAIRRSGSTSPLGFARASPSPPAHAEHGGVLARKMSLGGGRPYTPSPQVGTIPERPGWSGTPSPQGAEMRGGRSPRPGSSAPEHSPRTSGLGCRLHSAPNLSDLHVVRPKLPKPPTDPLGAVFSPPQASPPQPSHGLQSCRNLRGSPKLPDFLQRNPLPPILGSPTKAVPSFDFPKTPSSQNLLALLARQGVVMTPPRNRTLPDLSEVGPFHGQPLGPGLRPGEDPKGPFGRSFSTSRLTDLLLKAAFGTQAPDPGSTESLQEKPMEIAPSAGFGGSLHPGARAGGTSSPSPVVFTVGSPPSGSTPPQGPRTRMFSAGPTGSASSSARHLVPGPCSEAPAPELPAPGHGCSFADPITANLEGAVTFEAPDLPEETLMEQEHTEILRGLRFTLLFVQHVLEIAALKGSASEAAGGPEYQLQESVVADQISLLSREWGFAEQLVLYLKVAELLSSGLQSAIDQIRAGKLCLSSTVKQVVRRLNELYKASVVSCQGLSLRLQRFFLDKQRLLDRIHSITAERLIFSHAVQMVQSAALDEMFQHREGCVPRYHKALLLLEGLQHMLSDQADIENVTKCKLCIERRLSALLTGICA
Nature of the test: Selectivity interaction (Kinase panel (DSF assay)) EUB0001559a ULK1.

Test [14] concerns the target T2, Discoidin domain-containing receptor 2 (Homo sapiens) (UniProt Q16832).
T2 sequence (whole entry): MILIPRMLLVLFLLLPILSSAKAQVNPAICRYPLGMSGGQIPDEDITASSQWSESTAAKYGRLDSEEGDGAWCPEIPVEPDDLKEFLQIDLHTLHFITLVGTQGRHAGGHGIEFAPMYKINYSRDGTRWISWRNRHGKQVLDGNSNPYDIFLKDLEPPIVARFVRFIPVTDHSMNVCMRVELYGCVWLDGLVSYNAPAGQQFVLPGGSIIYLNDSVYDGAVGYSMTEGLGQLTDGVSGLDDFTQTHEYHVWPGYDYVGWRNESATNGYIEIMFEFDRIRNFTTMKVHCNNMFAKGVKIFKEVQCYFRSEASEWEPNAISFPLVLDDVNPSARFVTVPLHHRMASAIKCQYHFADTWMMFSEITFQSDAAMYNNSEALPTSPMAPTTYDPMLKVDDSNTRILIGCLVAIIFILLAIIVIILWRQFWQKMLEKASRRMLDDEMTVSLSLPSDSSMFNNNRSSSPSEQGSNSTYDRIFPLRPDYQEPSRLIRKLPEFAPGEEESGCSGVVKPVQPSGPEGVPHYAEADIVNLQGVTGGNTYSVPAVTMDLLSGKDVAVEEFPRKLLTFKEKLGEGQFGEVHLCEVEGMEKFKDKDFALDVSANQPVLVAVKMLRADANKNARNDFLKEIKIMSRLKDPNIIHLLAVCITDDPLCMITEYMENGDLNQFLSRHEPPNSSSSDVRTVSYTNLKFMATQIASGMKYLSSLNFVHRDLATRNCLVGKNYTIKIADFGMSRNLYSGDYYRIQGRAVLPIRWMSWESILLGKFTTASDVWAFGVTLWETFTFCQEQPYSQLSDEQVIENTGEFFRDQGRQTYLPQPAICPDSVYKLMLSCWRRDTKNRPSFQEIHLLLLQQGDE
Description: Selectivity interaction (KinomeScan (DiscoverX)) EUB0000045b DDR2.

Mitogen-activated protein kinase 10, sequence (P53779 whole entry): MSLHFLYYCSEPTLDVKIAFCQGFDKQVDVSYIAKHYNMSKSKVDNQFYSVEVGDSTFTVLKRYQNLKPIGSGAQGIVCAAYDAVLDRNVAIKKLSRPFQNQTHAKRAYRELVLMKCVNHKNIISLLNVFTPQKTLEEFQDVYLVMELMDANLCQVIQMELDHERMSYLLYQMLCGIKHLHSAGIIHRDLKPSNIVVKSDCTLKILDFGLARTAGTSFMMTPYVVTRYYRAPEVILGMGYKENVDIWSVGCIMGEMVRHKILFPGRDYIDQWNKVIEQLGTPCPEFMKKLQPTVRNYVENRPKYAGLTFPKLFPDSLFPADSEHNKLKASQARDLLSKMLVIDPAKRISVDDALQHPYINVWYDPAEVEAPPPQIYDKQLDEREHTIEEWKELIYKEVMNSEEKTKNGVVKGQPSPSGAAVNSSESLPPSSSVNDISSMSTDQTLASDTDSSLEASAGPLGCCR
Hepatocyte growth factor receptor, sequence (P08581 whole entry): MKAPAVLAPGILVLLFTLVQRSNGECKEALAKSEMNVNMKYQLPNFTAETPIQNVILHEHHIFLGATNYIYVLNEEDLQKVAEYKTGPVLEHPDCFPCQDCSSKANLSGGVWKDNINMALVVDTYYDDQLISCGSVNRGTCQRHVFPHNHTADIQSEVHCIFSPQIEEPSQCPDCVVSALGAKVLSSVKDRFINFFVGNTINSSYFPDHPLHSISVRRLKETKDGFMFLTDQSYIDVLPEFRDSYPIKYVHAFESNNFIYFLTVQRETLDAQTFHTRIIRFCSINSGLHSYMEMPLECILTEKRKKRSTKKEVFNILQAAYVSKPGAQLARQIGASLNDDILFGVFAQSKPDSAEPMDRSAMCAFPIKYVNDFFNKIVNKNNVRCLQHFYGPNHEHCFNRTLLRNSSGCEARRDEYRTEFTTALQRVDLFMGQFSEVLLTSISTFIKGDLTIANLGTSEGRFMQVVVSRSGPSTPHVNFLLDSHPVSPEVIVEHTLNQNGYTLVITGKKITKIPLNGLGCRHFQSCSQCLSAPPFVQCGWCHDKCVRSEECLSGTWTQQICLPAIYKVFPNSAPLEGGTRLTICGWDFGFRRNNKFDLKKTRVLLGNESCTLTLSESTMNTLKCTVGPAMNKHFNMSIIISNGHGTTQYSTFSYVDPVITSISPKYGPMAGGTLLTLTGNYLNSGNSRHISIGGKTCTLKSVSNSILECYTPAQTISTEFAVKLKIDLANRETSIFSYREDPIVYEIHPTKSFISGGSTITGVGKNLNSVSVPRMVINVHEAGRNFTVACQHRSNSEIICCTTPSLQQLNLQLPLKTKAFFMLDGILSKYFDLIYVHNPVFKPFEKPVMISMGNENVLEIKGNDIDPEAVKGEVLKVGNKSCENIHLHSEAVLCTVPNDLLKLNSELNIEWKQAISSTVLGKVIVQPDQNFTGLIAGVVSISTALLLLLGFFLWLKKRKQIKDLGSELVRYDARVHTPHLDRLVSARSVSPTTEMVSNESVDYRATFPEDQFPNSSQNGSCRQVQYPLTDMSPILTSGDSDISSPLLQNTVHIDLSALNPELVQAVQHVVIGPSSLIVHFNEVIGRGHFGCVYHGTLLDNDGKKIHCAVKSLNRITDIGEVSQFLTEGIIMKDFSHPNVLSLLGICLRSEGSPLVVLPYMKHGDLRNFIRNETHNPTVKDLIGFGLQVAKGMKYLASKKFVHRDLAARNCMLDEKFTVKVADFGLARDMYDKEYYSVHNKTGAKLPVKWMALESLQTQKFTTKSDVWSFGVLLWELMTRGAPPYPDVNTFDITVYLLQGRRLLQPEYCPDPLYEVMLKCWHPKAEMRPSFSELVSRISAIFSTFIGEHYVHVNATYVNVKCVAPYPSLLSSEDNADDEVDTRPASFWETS
Hepatocyte growth factor receptor (Homo sapiens), P08581 [M1250T], sequence (P08581 whole entry M1250T): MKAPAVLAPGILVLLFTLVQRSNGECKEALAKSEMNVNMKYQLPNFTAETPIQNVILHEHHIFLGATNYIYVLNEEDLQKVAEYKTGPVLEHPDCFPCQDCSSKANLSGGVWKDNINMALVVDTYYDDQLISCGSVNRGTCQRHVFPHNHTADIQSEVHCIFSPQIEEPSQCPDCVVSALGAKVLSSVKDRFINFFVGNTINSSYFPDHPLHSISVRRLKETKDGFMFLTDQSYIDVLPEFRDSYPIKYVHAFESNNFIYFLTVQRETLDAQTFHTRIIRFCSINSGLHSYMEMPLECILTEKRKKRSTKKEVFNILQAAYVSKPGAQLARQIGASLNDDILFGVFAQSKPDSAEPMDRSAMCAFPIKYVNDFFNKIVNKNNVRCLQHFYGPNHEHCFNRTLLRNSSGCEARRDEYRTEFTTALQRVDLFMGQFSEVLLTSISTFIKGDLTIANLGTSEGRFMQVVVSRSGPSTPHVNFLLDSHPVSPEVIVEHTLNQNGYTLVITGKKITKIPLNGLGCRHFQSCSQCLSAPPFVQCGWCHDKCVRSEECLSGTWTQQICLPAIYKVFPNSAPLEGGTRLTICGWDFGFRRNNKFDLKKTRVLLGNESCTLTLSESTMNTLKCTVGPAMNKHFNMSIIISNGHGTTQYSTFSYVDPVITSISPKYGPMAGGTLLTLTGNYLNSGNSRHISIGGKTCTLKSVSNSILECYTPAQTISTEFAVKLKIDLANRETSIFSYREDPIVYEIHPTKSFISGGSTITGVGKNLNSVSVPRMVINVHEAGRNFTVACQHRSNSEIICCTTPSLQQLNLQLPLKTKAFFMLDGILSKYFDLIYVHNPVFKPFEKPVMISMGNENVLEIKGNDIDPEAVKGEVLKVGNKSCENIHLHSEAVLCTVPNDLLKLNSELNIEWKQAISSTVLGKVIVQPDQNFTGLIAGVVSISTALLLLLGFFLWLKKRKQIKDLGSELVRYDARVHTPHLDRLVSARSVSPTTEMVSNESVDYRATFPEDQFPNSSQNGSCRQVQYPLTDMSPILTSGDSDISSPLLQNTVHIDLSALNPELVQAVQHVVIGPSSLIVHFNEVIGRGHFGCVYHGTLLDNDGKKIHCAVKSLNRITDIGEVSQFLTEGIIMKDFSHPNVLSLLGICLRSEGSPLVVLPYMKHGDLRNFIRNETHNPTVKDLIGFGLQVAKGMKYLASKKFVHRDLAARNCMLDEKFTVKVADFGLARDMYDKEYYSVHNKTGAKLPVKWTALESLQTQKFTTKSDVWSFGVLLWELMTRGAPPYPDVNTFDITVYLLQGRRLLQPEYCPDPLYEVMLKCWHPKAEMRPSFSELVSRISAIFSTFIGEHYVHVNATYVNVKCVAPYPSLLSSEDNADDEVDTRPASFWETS
Transcription initiation factor TFIID subunit 1 (Homo sapiens), sequence (P21675 whole entry): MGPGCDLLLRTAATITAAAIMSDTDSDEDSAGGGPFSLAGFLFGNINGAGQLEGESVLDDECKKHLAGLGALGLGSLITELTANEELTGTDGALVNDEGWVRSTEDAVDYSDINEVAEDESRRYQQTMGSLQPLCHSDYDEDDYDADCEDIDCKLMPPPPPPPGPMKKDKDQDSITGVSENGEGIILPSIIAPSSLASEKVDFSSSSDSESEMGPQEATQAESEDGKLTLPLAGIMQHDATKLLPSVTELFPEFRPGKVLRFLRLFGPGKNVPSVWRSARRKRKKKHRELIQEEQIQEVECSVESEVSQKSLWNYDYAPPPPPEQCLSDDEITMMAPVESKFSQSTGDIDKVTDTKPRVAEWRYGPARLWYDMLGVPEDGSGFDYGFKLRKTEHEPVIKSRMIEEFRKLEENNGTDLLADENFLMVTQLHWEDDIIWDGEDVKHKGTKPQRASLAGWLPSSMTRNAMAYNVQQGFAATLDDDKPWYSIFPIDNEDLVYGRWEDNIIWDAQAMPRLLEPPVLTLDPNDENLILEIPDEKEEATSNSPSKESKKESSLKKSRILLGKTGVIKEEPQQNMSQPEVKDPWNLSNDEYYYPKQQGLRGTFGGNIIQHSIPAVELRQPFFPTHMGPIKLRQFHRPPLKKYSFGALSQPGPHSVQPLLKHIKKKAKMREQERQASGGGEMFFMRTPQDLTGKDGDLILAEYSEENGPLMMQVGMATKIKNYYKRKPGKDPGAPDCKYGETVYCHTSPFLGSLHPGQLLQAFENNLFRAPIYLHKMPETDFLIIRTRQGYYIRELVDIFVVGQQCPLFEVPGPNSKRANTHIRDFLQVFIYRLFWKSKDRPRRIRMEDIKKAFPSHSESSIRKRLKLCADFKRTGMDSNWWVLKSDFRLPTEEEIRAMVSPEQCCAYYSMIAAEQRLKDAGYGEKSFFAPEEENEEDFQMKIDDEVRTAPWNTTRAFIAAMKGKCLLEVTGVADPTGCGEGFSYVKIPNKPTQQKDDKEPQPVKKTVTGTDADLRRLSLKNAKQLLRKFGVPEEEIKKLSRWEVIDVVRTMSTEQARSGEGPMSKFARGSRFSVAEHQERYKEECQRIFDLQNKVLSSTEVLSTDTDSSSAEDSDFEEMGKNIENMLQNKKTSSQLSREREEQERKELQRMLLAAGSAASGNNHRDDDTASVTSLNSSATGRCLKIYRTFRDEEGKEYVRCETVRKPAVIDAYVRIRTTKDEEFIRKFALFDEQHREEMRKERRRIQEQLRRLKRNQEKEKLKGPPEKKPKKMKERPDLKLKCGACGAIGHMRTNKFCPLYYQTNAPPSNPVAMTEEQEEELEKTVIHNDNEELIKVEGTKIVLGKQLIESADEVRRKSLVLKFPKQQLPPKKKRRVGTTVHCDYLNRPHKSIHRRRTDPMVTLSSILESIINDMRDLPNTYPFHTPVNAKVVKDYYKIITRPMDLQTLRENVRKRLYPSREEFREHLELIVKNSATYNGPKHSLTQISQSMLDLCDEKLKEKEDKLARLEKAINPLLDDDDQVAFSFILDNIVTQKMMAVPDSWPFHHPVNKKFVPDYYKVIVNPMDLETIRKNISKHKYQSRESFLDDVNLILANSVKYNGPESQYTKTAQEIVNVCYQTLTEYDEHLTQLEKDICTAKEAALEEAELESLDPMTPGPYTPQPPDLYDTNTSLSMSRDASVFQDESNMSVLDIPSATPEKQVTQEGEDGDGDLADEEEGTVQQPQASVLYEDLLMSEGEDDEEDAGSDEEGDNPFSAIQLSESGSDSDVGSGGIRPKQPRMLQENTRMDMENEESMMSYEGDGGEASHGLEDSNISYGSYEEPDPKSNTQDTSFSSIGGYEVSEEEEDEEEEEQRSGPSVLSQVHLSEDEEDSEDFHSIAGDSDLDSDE

Take `C=CC(=O)Nc1ccc(C(=O)Nc2[nH]nc3c2CN(C(=O)N[C@H](CN(C)C)c2ccccc2)C3(C)C)cc1`: the % of engagement in test [1] was -2%.
With `CNC(=O)Nc1ccc(-c2nc(N3CC4CCC(C3)O4)c3cnn(C4CCC5(CC4)OCCO5)c3n2)cc1`, the % of control in test [2] came out at 100%.
The compound `Cc1cc([C@@H](C)Nc2ccccc2C(=O)O)c2nc(N3CCOCC3)cc(=O)n2c1` [AZD-6482] gave a % of control in [3] of 94%.
`O=C(NOC[C@H](O)CO)c1ccc(F)c(F)c1Nc1ccc(I)cc1F`: in test [4], the % of control came to 92%.
Turning to `COc1cc(N(C)c2ccnc3ccc(C(F)(F)F)cc23)cc(OC)c1OC`, the % binding is 100% in [5], 96% in test [6] and 82% in test [7].
Take `CC[C@@H]1[C@H](F)C(=O)N[C@@H]1COc1nccc2cc(C(N)=O)c(OC)cc12` [ZIMLOVISERTIB]: the figures for the % of inhibition in [8], in [9] and in [10] were -0.8%, 4.92% and -7.4%, respectively.
The compound `COc1cc(Nc2nc(C)cc(-c3cnn4nc(OC)ccc34)n2)cc(C(F)(F)F)c1` registered a % of control in test [11] of 80%.
Consider `Cc1cc(CN)cc(C)c1-c1ncn(C)c1-c1cncn1C`, for which the dTM in test [12] is -1.15 K.
For `CN(C(=O)c1cnn2cccnc12)c1cc2c(cc1N1CCOCC1)C(=O)N(C[C@@H](F)C(C)(C)O)C2`, in test [13], the dTM is -1 K.
Turning to `C=CC(=O)Nc1cc(-n2c(=O)ccc3cnc4ccc(-c5ccc(NS(C)(=O)=O)cc5)cc4c32)ccc1C`, the % of control in test [14] (at 1 µM) and in test [14] (at 10 µM) was 100% throughout.
